These results are taken from patent publication US8580803B2, “Substituted pyrrolo-aminopyrimidine compounds” (ArQule, Inc., priority 2009, dated 2013).

One test deals with T1, ACK1 (110-489) (Homo sapiens, UniProt Q07912).
T1 construct: ACK1 110-489 (12.5 μl) were added to each well
As to the kind of experiment: ACK1 Activity Assay (AlphaScreen, PYK2-derived peptide). It counts as biochemical. The protocol: The extent of peptide phosphorylation was determined by using acceptor beads conjugated to phosphotyrosine antibody that recognizes the phosphorylated peptide and donor beads conjugated to streptavidin that binds to the biotin on the peptide. Excitation of the donor beads converted ambient oxygen to excited singlet oxygen which when in close proximity to acceptor beads, reacted with acceptor beads where the signal was amplified.
Test inhibitors and controls (N-(2,6-dimethylphenyl)-4-(2-ethoxyphenoxy)-2-[(4-piperazin-1-ylphenyl)amino]pyrimidine-5-carboxamide) were prepared in 10% DMSO at 10× the desired final concentration. […] After a 20-min incubation at room temperature, the kinase reaction was initiated by the addition of 10 μl of PYK2/ATP mixture. […] The plates were incubated for 60 min at room temperature. The reaction was stopped by the addition of 10 μl stop/detection mixture which contains EDTA (final concentration is 10 mM), AlphaScreen™ Streptavidin Donor beads (final concentration is 500 ng/well) and AlphaScreen™ Phospho-tyrosine (P-Tyr-100) Acceptor beads (final concentration is 500 ng/well) were diluted in assay buffer. This reagent addition step was performed in the dark because the AlphaScreen™ beads are light-sensitive. The plate was incubated for 60 min at room temperature in the dark and the plates were read on the Perkin Elmer Envision Multilabel plate reader ([…]).

A further test deals with AKT1 (Homo sapiens, UniProt P31749). Kind of test: AKT Kinase Activity Assay (AlphaScreen, crosstide). Conditions: Average of Akt1 biochemical assay. The protocol:
AKT1 activity was assayed using the GSK3-derived biotinylated peptide substrate, crosstide (biotin-GRPRTSSFAEG), and AlphaScreen™ (Amplified Luminescent Proximity Homogeneous Assay) technology. AKT1 activation was achieved by the addition of the activating kinases PDK1 and MAPKAPK2, lipid vesicles, and ATP. The extent of peptide phosphorylation was determined using a phospho-AKT substrate antibody and acceptor beads conjugated to Protein A and donor beads conjugated to streptavidin that bind to the biotin on the peptide. Excitation of the donor beads converted ambient oxygen to excited singlet oxygen which, when in close proximity to acceptor beads, reacted with acceptor beads resulting in signal amplification.
Test inhibitors and controls (Abbott inhibitor, Merck pre-clinical inhibitor, and Merck clinical inhibitor) were prepared in 10% DMSO at 10-fold the desired final concentration, and added to each well of a reaction plate (Corning 96-well half-area solid white nonbinding surface plate) in a volume of 2.5 μL. […] After a 20 minute pre-incubation at room temperature, the kinase reaction was initiated by the addition of 5 μL of an activation mixture diluted in assay buffer containing biotinylated crosstide, PDK1, MAPKAPK2, DOPS/DOPC, PtdIns(3,4,5)P3, and ATP for final concentrations of 60 nM biotinylated crosstide, 0.1 nM PDK1, 0.7 nM MK2, 5.5 μM DOPS, 5.5 μM DOPC, 0.5 μM PtdIns(3,4,5)P3, and 50 μM ATP. The plates were incubated for 30 minutes at room temperature, and then stopped in the dark by the addition of 10 μL stop/detection mixture prepared in assay buffer containing EDTA, AlphaScreen™ Streptavidin Donor and Protein A Acceptor beads, and phospho-AKT substrate antibody for final concentrations of 10 mM EDTA, 500 ng/well of both AlphaScreen™ Streptavidin Donor beads and Protein A Acceptor beads, and phospho-AKT substrate antibody at a final dilution of 1:350. Assay plates were incubated for 90 minutes at room temperature in the dark, and the plates were read on a Perkin Elmer Envision Multilabel plate reader ([…]).
On the technique in general: Bead proximity is the source of the signal in Alpha formats.

AKT1, sequence (P31749 whole entry): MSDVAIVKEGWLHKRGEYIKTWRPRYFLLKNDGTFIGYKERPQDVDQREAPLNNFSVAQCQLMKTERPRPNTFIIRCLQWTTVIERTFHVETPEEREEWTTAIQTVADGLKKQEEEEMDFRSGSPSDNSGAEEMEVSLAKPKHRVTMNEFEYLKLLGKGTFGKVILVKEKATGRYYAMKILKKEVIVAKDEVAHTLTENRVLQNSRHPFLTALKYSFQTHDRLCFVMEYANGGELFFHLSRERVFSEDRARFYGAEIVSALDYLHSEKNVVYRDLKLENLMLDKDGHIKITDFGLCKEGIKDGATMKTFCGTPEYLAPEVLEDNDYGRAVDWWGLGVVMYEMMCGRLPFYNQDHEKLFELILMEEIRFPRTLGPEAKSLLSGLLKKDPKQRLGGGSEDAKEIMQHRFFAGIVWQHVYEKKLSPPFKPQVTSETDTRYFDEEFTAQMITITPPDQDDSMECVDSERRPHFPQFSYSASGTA
T1 sequence (Q07912 110-489, species assumed): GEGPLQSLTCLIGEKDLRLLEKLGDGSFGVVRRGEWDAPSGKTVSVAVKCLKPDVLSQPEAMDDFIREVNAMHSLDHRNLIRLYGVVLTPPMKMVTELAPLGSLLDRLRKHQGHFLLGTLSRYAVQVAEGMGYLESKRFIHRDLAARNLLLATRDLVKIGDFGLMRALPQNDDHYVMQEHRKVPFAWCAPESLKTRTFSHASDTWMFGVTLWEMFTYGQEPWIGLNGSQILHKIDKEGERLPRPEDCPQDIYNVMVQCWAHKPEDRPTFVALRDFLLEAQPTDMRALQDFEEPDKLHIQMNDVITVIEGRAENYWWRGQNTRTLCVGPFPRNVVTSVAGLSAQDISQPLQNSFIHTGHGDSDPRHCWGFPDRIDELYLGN

A word on the IC50: it is the concentration that inhibits the measured activity by half. Consider `CN(C)CCCNC(=O)c1cccc(Nc2ncnc3[nH]cc(C(=O)c4ccccc4)c23)c1` [3-[(5-benzoyl-7H-pyrrolo[2,3-d]pyrimidin-4-yl)amino]-N-[3-(dimethylamino)propyl]benzamide], for which the IC50 against ACK1 (110-489) turned out to be 486 nM; on AKT1, 674 nM.

As for `O=C(Nc1cccc(Nc2ncnc3[nH]cc(C(=O)c4ccccc4)c23)c1)c1ccc(Cl)cc1` [4-chloro-N-(3-{[5-(phenylcarbonyl)-7H-pyrrolo[2,3-d]pyrimidin-4-yl]amino}phenyl)benzamide], the IC50 turned out to be 15700 nM against ACK1 (110-489) and 5130 nM at AKT1.

In the case of `Nc1ccc(Nc2ncnc3[nH]cc(C(=O)c4ccccc4)c23)cc1` [{4-[(4-aminophenyl)amino]-7H-pyrrolo[2,3-d]pyrimidin-5-yl}(phenyl)methanone], the IC50 against ACK1 (110-489) is 338 nM; at AKT1 it was 2570 nM.

Consider `Nc1cccc(Nc2ncnc3[nH]cc(C(=O)c4ccccc4)c23)c1` [drawing 248, {4-[(3-aminophenyl)amino]-7H-pyrrolo[2,3-d]pyrimidin-5-yl}(phenyl)methanone], for which the results for the concentration for half-maximal inhibition (IC50) against ACK1 (110-489) and on AKT1 were 415 nM and 1250 nM, respectively.
